Measurements: patent US20190192527A1, “COMPOSITIONS COMPRISING PIKFYVE INHIBITORS AND METHODS RELATED TO INHIBITION OF RANK SIGNALING” (AI Therapeutics, Inc., priority 2016, published 2019)

How the values were obtained:
[1] = tested on: periodontal bone resorption; test: rat periodontal disease model; assay type: in vivo
Experimental: FIGS. 6A-6B: Graphical representation of the effect of apilimod on periodontal bone resorption (A). Daily oral doses of apilimod (8 and 20 mg/kg) reduce bone loss (B).
Moreover, apilimod was active in inhibiting in vivo osteoclast activity in a rat periodontal disease model (see FIGS. 6A-6B). In brief, Th-1 type clonal cells specific for Actinobacillus actinomycetemcomitans (Aa) 29-kDa outer membrane protein (Omp29) were activated by incubation with formalin-killed Aa and irradiated syngeneic rat spleen cells. These activated cells were then transferred intravenously through the rat tail vein (1.0×10^7 cells) into the rat. On the same day, the antigen Omp29 was injected with LPS into the left palatal maxilla gingiva; and saline was injected into the right palatal maxilla gingiva, for control measurements. Apilimod was given orally in daily doses of 8 and 20 mg/kg from the day of the induction until day 10. At the end of the ten day period, animals were sacrificed and their jaws were defleshed to allow the assessment of periodontal bone resorption, calculated as the ratio of the difference in cemento-enamel junction (CEJ-AL) distance between left and right sides versus CEJ-AL distance of right.

pKa = assay type: physicochemical
osteoclast formation = conditions: in vitro assay, described in WO 2005/000404; read-out: IC50, inhibitory activity against osteoclast formation; cited from earlier work
Cathepsin K = Cathepsin K maturation, western blot in RAW 264.7-derived osteoclasts; assay type: cell-based; conditions: differentiated with 30 ng/ml RANKL 4 days, then RANKL and apilimod 24 hours
Experimental: RAW264.7 macrophages were differentiated with 30 ng/ml RANKL for 4 days and subsequently treated with RANKL and the indicated concentration of apilimod for 24 hours prior to harvesting lysates and performing western blot for the indicated protein.

MPC-11 tumor cells = test: systemic MPC-11 syngeneic model of multiple myeloma; assay type: in vivo, mouse
Excerpt: To determine if apilimod inhibition of RANKL/RANK signaling blocks the bone growth of multiple myeloma cells in vivo, the systemic MPC-11 syngeneic model was used (Laskov R et al. J Exp Med. 1970 131(3):515-41; Ferguson V L et al. Bone. 2002 30(1): 109-116). In this model, animals develop hind limb paralysis due to infiltration of multiple myeloma cells into the vertebrae that compresses the spinal column. In brief, MPC-11 tumor cells were maintained in vitro in DMEM medium supplemented with 10% horse serum at 37° C. in 5% CO2. Each mouse was then injected via the tail vein with MPC-11 tumor cells (1×10^6) in 0.1 ml of PBS for tumor development. The regimen of dosing is detailed in Table 1. At 4 days post-tumor inoculation, mice were orally administered with a vehicle or apilimod dimesylate (70 mg/kg) twice a day up to 35 days. Survival rate of vehicle-treated animal group (n=10) and apilimod-treated animal group (n=10) were monitored as an indicator of hind limb paralysis.
To directly examine the effect of apilimod on the MPC-11 tumor burden in bone, immunohistochemical staining was performed. Femurs from the in vivo experiment were fixed in 10% formalin and then rinsed in 70% ethanol and dehydrated in acetone before embedding in methacrylate. 4 μm sections were then stained in 2% Toluidine blue. […] Orange boxed region on left panel is shown at 40× magnification in the right panel. Note total effacement of bone marrow architecture and replacement with MPC-11 tumor cells in top panel. […] This effect was quantitated by generating paraffin sections from tibias of the animals and staining the sections with the multiple myeloma marker CD138 (BioLegend antibody, Clone 281-2). Values for CD138 positive staining were obtained by measuring within in a pre-defined Region of Interest (ROI) defined as 1.17 millimeter square, 200 micrometer below the tibia proximal growth plate. CD138 positive staining was measured according to standard protocols (Dempster D W et al. J Clin Endocrinol Metab. 2012 97(8):2799-2808).

WSU-DLCL2B cell lymphoma = test: viability (CellTiter Glo) of CRISPR guide RNA cell pools treated with apilimod; assay type: cell-based; conditions: treated for 3 days
Experimental: Pools cells containing guide RNAs targeted against either the indicated genes or non-targeting (NT) guide RNAs were treated with apilimod for 3 days and viability was assayed by CellTiter Glo (Promega).
A genome-wide CRISPR screen for factors conferring resistance of B-cell lymphoma to apilimod uncovered the lysosomal regulator TFEB as well as the lysosomal and osteopetrosis-associated genes CLCN7, OSTM1, and SNX10 as mediators of apilimod-induced cytotoxicity (see FIGS. 1A-1D).

[2] = microsomal and hepatocyte stability studies, metabolite identification; assay type: in vitro ADME; conditions: rat and human microsomal and hepatocyte stability studies
Experimental: (§1) In embodiments, the apilimod for use in the compositions and methods of the invention is the free base or dimesylate salt form, MW 610.7 (dimesylate salt); tPSA 83.1; pKa 5.39 (±0.03), 4.54 (±0.27); HBD 1. […] In embodiments, an active metabolite of apilimod may be used. […] Tmax generally occurred within 1 or 2 hours after the oral dose, consistent with the rapid […] of this compound from the circulation. […] The primary metabolites are short-lived in circulation. Both apilimod free base and the dimesylate salt are highly bound ([…]) to rat, dog and human plasma proteins.

RAW264.7 macrophages = test: RANKL-induced differentiation of TRAP positive osteoclasts from RAW264.7 macrophages; assay type: cell-based
Experimental: RAW264.7 macrophages were differentiated with either vehicle or 30 ng/mL RANKL for a total of 5 days. For the last 3 days of differentiation, cells were co-treated with the indicated concentration of apilimod. Cells were subsequently stained for TRAP. Arrows highlight giant TRAP positive, multinucleated osteoclasts.
FIGS. 4A-4B: Inhibition of RANKL-induced differentiation of RAW264.7-derived osteoclasts by apilimod as indicated by a reduction in the number of TRAP-positive multinucleated cells (A) or giant osteoclasts (B). The average of triplicate wells was determined and percentages relative to untreated are shown.
(§2) Apilimod blocked the expression of RANK receptor and the transcription factors MITF, PU.1 and c-Fos in both undifferentiated and RANKL-differentiated RAW264.7 macrophages. Cells were differentiated for a total of 3 days with 30 ng/mL RANKL. On the last day of differentiation cells were co-treated with RANKL and the indicated concentration of apilimod or vehicle for 24h. […] (see FIGS. 5A-5B).

[3] = tested on: RANK, c-Fos, MITF, PU.1, TRAF6, OPG; test: RNA expression of osteogenic factors by quantitative PCR in RAW264.7 macrophages; assay type: cell-based; conditions: undifferentiated and RANKL-differentiated (30 ng/mL, 3 days) cells, apilimod 24h
Excerpt: FIG. 5A-5B: Effect of apilimod treatment on the RNA expression of osteogenic factors RANK, c-Fos, microphthalmia-associated transcription factor (MITF), PU.1, TNF receptor associated factor 6 (TRAF6) and osteoprotegerin (OPG) in undifferentiated (A) or differentiated (B) RAW264.7 macrophages as assessed by quantitative PCR.
as §2

CYP3A4, CYP1A2, CYP2D6 = test: reaction phenotyping studies; assay type: in vitro ADME
Experimental: as §1

[4] = tibia sections, ROI 1.17 millimeter square, n = 5, apilimod dimesylate 70 mg/kg p.o. BID
[5] = RANKL-induced differentiation, relative to untreated

Cc1cccc(/C=N/Nc2cc(N3CCOCC3)nc(OCCc3ccccn3)n2)c1 [apilimod]
protection against Th1-mediated bone loss (periodontal bone resorption) ([1]; 8 mg/kg orally daily until day 10): significant protection
protection against Th1-mediated bone loss (periodontal bone resorption) ([1]; 20 mg/kg orally daily until day 10): significant protection
pKa (pKa): 5.39
IC50 (osteoclast formation): 15 nM
cathepsin K processing (maturation) (Cathepsin K): inhibition of cathepsin K processing
invasion of myeloma cells in femur marrow, toluidine blue staining, qualitative (MPC-11 tumor cells; apilimod dimesylate 70 mg/kg p.o. BID): minimal invasion
animals with hind limb paralysis (MPC-11 tumor cells; apilimod dimesylate 70 mg/kg p.o. twice a day up to 35 days, n=10): none
Tumor Area, CD138 staining (MPC-11 tumor cells; [4]): 0.012 ± 0.03 mm^2
Tumor Area/ Tissue Area, CD138 staining (MPC-11 tumor cells; [4]): 0.010 ± 0.02%
effect of CRISPR-induced loss of CLCN7, OSTM1, SNX10, TFEB on viability under apilimod (WSU-DLCL2B cell lymphoma): confer resistance to apilimod
primary metabolites identified [2]: Six primary metabolites
RANKL-stimulated osteoclastogenesis (RAW264.7 macrophages; 30 ng/mL RANKL 5 days, apilimod for the last 3 days, TRAP staining): potently blocked
number of TRAP-positive multinucleated cells (RAW264.7 macrophages; [5]): reduction
number of giant osteoclasts (RAW264.7 macrophages; [5]): reduction
RNA expression of RANK, c-Fos, MITF, and PU.1 [3]: Decreases were observed
RNA expression of TRAF6 or OPG [3]: Significant decreases were not observed
enzymes that contribute to metabolism (CYP3A4, CYP1A2, CYP2D6): CYP3A4 and to a lesser extent CYP1A2 and/or CYP2D6
